Data reported in patent publication US10660912B2, “Combination therapy for cancer” (NuCana plc, priority 2015, dated 2020).

Assays:
[1] = human, in vivo
Experimental: Intracellular concentrations were normalised to tissue protein concentrations. dFdCTP=2′,2′-difluoro-2′-deoxycytidine; PBMCs=Peripheral Blood Mononuclear Cells.
6 ml of blood was collected using heparinised blood collection tubes. After centrifugation and separation of plasma, buffycoat was collected and transferred to new test tube containing 3 ml of Lymphoprep density gradient. After centrifugation, the upper interface containing the PBMC layer was transferred to new test tube. After washing with phosphate buffered saline (PBS), PBMCs were re-suspended in 100 μl PBS. Then, another 100 μl of 0.8 M PCA was added and the mixture was vortex mixed and centrifuged followed by transfer of 100 μl supernatant to new test tube. The PCA extracts were stored at −80° C. until time of analysis.
PCA extracts were buffered using 50 μl of 1M NH4Ac, then neutralised using 20 μl of 10% ammonia solution. Finally, 5 μl containing the internal standard 8-ChloroATP and 5 μl deionised water were then added. The extracts were transferred to LC-MS vials and 10 μl were injected into the UPLC-MS/MS system.
10 mg/mL stock solution of the analyte was prepared and aliquot frozen at −80° C. until use. The analyte was resolved using an ultra-performance liquid chromatography system (Accela UPLC, Thermo Scientific, UK) equipped with a Biobasic AX, 5 μm, 50×2.1 mm column (Thermo Electron Corporation, Murrieta, Calif., USA) and a mobile phase consisting of a mixture of 10 mM NH4Ac in ACN/H2O (30:70 v/v), pH 6.0 (A), and 1 mM NH4Ac in ACN/H2O (30:70 v/v), pH 10.5 (B). The mobile phase gradient was employed, comprising: buffer A=95% at 0-0.5 min, from 95 to 0% over 1.25 minutes, held at 0% for 1.75 minute, from 0 to 95% over 0.1 minutes, ending with 95% for 2.9 minutes, all at a flow rate of 500 μl/min.
Eluting compounds of interest were detected using a triple stage quadrupole Vantage mass spectrometry system (Thermo Scientific, UK) equipped with an electrospray ion source. Samples were analyzed in the Multiple Reaction Monitoring (MRM), positive (+ve) and negative (−ve) ion modes at a spray voltage of 3500 and 3000 V, respectively. Nitrogen was used as sheath and auxiliary gases at a flow rate of 50 and 20 arbitrary units, respectively. Argon was used as collision gas with pressure of 1.5 mTorr.
The combination regimen NUC-1031 with carboplatin was administered to 10 patients with ovarian cancer as part of the Phase Ib study PRO-002.

[2] = test system: platinum sensitive recurrent ovarian cancer; conditions: cited from earlier work

Row | Structure (SMILES) | Apparent t1/2 (intracellular dFdCTP) ([1]; female) | Clearance ([1]; female) | Tmax (intracellular dFdCTP) ([1]; female) | Cmax intracellular dFdCTP levels relative to gemcitabine in combination with carboplatin [1] | intracellular dFdCTP Cmax concentrations relative to gemcitabine [1] | levels of the toxic metabolite normally associated with gemcitabine [1] | response rate ([2]; P=0.0016) | median PFS ([2]; median follow-up 17 months, carboplatin AUC5 alone or AUC4 day 1 plus gemcitabine 1000 mg/m^2 days 1 & 8 every 3 weeks)
1 | C[C@H](NP(=O)(OC[C@H]1O[C@@H](n2ccc(N)nc2=O)C(F)(F)[C@@H]1O)Oc1ccccc1)C(=O)OCc1ccccc1 (stereo partly drawn) [NUC-1031, 2′-Deoxy-2′,2′-difluoro-D-cytidine-5′-O-[phenyl (benzoxy-L-alaninyl)] phosphate] | 9.6 h | 3.9 L/h | 1 h | 4 fold | around 10 × | less than half |  | 
2 | N.N.O=C([O-])C1(C(=O)[O-])CCC1.[Pt+2] [carboplatin] |  |  |  |  |  |  | 30.9% | 5.8 months
